Measured values from ChEMBL document CHEMBL5360622, “Leucettinibs, a Class of DYRK/CLK Kinase Inhibitors Inspired by the Marine Sponge Natural Product Leucettamine B” (J Med Chem, 2023).

Key:
[1] = molecular target: Casein kinase I isoform epsilon (Homo sapiens, UniProt P49674)
[2] = molecular target: Cyclin-dependent kinase 5/CDK5 activator 1 (Homo sapiens, UniProt Q00535); type: cell-based, Sf9
[3] = molecular target: Dual specificity protein kinase CLK3 (Homo sapiens, UniProt P49761); type: cell-based, Sf9
[4] = molecular target: T1, Dual specificity tyrosine-phosphorylation-regulated kinase 4 (Homo sapiens, UniProt Q9NR20)
T1 sequence (Q9NR20 whole entry): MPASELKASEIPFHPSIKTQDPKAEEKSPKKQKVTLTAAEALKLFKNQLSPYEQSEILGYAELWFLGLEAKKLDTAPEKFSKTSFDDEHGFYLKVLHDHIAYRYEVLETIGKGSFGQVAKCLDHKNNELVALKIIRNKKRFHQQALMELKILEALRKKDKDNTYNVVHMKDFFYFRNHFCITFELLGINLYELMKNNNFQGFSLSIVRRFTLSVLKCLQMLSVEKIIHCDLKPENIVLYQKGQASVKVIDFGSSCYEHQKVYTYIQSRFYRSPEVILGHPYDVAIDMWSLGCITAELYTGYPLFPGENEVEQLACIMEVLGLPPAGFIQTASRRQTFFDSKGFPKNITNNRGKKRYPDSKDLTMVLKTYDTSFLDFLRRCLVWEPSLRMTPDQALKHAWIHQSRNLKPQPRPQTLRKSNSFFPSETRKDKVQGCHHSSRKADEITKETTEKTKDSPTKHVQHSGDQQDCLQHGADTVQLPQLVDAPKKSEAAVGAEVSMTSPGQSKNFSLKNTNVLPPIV

[5] = molecular target: Glycogen synthase kinase-3 beta (Homo sapiens, UniProt P49841); type: cell-based, Sf9
[6] = molecular target: Dual specificity protein kinase CLK2 (Homo sapiens, UniProt P49760)
[7] = molecular target: T2, Dual specificity tyrosine-phosphorylation-regulated kinase 2 (Homo sapiens, UniProt Q92630)
T2 sequence (Q92630 whole entry): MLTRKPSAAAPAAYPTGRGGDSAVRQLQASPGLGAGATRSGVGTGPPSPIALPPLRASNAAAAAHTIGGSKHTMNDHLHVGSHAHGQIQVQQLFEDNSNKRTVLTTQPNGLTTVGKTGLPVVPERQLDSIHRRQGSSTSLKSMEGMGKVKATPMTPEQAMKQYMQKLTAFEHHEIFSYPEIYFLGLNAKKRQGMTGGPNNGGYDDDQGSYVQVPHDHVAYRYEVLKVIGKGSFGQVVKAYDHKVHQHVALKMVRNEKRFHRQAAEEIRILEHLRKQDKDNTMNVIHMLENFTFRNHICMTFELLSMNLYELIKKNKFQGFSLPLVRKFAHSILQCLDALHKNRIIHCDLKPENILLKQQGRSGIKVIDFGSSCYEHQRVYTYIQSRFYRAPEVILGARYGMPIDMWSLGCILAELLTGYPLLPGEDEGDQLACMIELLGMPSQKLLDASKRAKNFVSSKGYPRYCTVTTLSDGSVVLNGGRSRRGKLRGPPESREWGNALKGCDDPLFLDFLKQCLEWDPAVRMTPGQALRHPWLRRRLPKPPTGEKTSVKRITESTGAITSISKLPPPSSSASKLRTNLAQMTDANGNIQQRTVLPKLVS

Dual specificity protein kinase CLK2, sequence (P49760 whole entry): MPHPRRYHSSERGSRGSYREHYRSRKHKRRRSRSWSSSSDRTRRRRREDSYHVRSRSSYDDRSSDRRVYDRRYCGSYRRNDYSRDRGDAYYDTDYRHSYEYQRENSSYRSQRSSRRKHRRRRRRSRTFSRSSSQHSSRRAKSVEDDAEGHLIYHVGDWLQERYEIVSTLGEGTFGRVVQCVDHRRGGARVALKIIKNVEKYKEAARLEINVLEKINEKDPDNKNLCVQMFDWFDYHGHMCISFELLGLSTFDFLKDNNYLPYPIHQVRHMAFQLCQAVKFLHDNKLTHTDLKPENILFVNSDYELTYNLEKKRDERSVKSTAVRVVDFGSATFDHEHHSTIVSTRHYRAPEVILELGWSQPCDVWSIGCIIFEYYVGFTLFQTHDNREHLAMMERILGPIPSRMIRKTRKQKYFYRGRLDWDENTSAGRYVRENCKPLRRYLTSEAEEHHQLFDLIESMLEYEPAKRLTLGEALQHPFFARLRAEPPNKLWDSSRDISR
Dual specificity protein kinase CLK3, sequence (P49761 whole entry): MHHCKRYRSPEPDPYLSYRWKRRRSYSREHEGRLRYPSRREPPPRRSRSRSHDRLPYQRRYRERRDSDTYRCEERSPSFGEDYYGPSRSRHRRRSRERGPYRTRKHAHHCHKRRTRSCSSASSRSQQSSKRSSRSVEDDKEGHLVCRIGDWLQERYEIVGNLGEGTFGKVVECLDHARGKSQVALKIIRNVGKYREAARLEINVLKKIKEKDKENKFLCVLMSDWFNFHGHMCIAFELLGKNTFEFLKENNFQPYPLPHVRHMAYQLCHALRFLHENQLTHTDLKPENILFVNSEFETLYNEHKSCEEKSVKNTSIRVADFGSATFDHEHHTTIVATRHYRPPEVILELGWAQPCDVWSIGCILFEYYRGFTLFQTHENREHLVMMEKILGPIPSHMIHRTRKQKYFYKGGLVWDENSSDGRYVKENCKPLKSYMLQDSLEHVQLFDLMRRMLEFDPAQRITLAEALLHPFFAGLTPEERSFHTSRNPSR
Cyclin-dependent kinase 5/CDK5 activator 1, sequence (Q00535 whole entry): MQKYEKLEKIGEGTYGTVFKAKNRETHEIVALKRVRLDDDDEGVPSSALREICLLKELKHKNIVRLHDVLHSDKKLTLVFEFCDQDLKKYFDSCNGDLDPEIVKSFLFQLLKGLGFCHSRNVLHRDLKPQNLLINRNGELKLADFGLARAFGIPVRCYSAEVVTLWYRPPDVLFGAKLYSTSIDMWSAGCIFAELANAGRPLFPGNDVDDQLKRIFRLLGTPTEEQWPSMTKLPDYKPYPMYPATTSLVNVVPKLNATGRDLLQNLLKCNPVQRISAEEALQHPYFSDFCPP
Cyclin-dependent kinase 5/CDK5 activator 1, sequence (Q15078 whole entry, further chain): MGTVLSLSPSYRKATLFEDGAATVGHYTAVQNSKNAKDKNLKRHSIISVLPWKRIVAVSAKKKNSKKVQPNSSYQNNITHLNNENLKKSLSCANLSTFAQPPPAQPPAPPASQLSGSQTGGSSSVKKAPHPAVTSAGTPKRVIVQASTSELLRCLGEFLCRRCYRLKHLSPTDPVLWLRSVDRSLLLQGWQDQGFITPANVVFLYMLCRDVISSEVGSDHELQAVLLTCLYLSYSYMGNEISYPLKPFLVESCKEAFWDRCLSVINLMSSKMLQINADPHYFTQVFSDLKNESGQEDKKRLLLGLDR
Glycogen synthase kinase-3 beta, sequence (P49841 whole entry): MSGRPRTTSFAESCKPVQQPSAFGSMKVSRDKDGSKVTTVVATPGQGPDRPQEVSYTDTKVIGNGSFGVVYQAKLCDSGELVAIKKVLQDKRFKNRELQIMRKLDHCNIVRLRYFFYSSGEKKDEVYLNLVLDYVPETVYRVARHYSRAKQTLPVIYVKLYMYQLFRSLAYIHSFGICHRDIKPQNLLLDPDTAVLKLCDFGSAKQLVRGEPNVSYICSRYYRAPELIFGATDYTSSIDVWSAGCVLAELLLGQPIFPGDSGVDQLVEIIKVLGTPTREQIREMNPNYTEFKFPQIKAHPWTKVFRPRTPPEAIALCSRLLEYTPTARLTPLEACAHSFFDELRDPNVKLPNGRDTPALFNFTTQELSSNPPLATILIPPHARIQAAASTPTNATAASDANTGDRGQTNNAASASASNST
Casein kinase I isoform epsilon, sequence (P49674 whole entry, canonical isoform): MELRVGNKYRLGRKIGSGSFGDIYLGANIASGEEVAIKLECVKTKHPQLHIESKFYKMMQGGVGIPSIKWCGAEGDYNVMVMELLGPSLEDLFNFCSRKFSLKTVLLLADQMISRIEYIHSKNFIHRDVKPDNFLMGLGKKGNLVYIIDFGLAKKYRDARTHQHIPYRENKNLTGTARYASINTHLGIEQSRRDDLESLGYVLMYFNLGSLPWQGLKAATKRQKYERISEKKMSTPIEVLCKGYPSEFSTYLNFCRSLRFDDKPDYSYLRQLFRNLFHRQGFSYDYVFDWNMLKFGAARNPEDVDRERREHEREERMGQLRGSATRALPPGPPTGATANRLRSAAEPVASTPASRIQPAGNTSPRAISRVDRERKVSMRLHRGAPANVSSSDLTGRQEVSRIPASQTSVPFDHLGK

IC50 [1] [µM] | IC50 [2] [µM] | IC50 [3] [nM] | IC50 [4] [nM] | IC50 [5] [nM] | IC50 [6] [nM] | IC50 [7] [nM] | SMILES
1.48 | 5.01 | 1800 | 411 | 1330 |  |  | CN(C)C12CC3CC(CC(NC4=N/C(=C\c5ccc6ncsc6c5)C(=O)N4)(C3)C1)C2
3.43 | > 10 | 1060 | 244 | 999 | 28 |  | CN1CCN(c2ccc(NC3=N/C(=C\c4ccc5ncsc5c4)C(=O)N3)cc2)CC1
> 10 | > 10 | 1920 | 294 | 1190 | 143 | 175 | CN1CCN(c2ncc(NC3=N/C(=C\c4ccc5ncsc5c4)C(=O)N3)cn2)CC1
> 10 | > 10 | 201 | 1330 | > 10000 | 84 |  | O=C1NC(Nc2cccnc2)=N/C1=C\c1ccc2ncsc2c1
1.2 | 0.61 | 610 | 263 | 663 |  |  | CC(=O)NC12CC3CC(C1)CC(NC1=N/C(=C\c4ccc5ncsc5c4)C(=O)N1)(C3)C2
2.43 | 3.21 | 114 |  | 855 |  |  | O=C1NC(NC23CC4CC(CC2C4)C3)=N/C1=C\c1ccc2ncsc2c1
> 10 | > 10 | 537 | 448 | > 10000 |  | 1210 | O=C1NC(N[C@@H]2CCC[C@@H]2O)=N/C1=C\c1ccc2ncsc2c1 (racemic)
2.27 | 1.45 | 658 | 270 | 366 |  |  | O=C1NC(NC23CC4CC(CC(NC(=O)C5CC5)(C4)C2)C3)=N/C1=C\c1ccc2ncsc2c1
1.1 | 0.332 | 215 |  | 317 |  |  | O=C1NC(NC23CC4CC(CC(O)(C4)C2)C3)=N/C1=C\c1ccc2ncsc2c1
> 10 | > 10 | 686 | 731 | 4390 | 42 | 8210 | O=C1NC(N[C@@H](CO)CC2CC2)=N/C1=C\c1ccc2ncsc2c1
> 10 | > 10 | 224 | 553 | > 10000 |  | 472 | O=C1NC(N[C@@H]2CCC[C@H]2O)=N/C1=C\c1ccc2ncsc2c1 (racemic)
> 10 | > 10 | 405 | 1040 | 6570 | 398 |  | O=C1NC(N[C@H]2CCOC2)=N/C1=C\c1ccc2ncsc2c1
5.81 | 1.54 | 1020 | 233 | 511 |  |  | CS(=O)(=O)NC12CC3CC(CC(NC4=N/C(=C\c5ccc6ncsc6c5)C(=O)N4)(C3)C1)C2
> 10 | > 10 | 1600 | 3160 | > 10000 | 474 | 1730 | CC[C@@H](CO)NC1=N/C(=C\c2ccc3ncsc3c2)C(=O)N1
 | 0.943 |  |  | 616 |  |  | NCC(NC1=N/C(=C\c2ccc3ncsc3c2)C(=O)N1)c1ccccc1 (stereo not drawn)
> 10 | > 10 | 1150 | 1600 | > 10000 | 216 | 1550 | CC[C@H](CO)NC1=N/C(=C\c2ccc3ncsc3c2)C(=O)N1
> 10 | > 10 | 716 | 1380 | 2840 | 53 | 2010 | O=C1NC(NCc2cccnc2)=N/C1=C\c1ccc2ncsc2c1

IC50 [1] [µM] | IC50 [2] [µM] | IC50 [3] [nM] | IC50 [4] [nM] | IC50 [5] [nM] | IC50 [6] [nM] | IC50 [7] [nM] | SMILES
> 10 | > 10 | 450 | 3790 | 5600 | 616 | 260 | COC[C@@H](NC1=N/C(=C\c2ccc3ncsc3c2)C(=O)N1)c1ccccc1
> 10 | > 10 | 747 | 2780 | > 10000 | 404 |  | O=C1NC(N[C@@H]2CCOC2)=N/C1=C\c1ccc2ncsc2c1
> 10 | > 10 | 201 | 4160 | 2580 | 111 | 1130 | Cn1ccc(NC2=N/C(=C\c3ccc4ncsc4c3)C(=O)N2)n1
 | > 10 | 1480 | 3700 | > 10000 | 37 | > 10000 | O=C1NC(NCC23CC4CC(CC(C4)C2)C3)=N/C1=C\c1ccc2ncsc2c1
> 10 | > 10 | 467 | 1970 | > 10000 |  | 455 | O=C1NC(NC2CCC(F)(F)CC2)=N/C1=C\c1ccc2ncsc2c1
0.42 | 0.602 |  | 174 | 1360 |  |  | O=C1NC(NC2CCCCC(F)(F)C2)=N/C1=C\c1ccc2ncsc2c1 (racemic)
> 10 | 4.95 | 392 | 1770 | 9620 | 98 | 625 | O=C1NC(N[C@H]2CC[C@H](O)CC2)=N/C1=C\c1ccc2ncsc2c1
6.35 | 2.01 |  | 274 | 227 | 30 |  | CNCC(NC1=N/C(=C\c2ccc3ncsc3c2)C(=O)N1)c1ccccc1 (racemic)
 | 2.52 |  |  | 102 |  |  | NC[C@@H](NC1=N/C(=C\c2ccc3ncsc3c2)C(=O)N1)c1ccccc1
> 10 | > 10 | 127 | 335 | 5170 | 15 | 159 | COC[C@H](NC1=N/C(=C\c2ccc3ncsc3c2)C(=O)N1)c1ccccc1
1.76 | 0.304 | 284 | 284 | 455 |  |  | COC12CC3CC(CC(NC4=N/C(=C\c5ccc6ncsc6c5)C(=O)N4)(C3)C1)C2
> 10 | > 10 | 1820 |  | > 10000 | 407 | 743 | O=C1NC(Nc2ccc(F)cc2)=N/C1=C\c1ccc2ncsc2c1
 | 2.34 |  |  | 1110 |  |  | NC[C@H](NC1=N/C(=C\c2ccc3ncsc3c2)C(=O)N1)c1ccccc1
> 10 | > 10 | > 10000 |  | 8970 |  | 1870 | COc1nc(C)ccc1NC1=N/C(=C\c2ccc3ncsc3c2)C(=O)N1
> 10 | > 10 | 1460 | 1720 | 2870 | 40 | 4010 | O=C1NC(N[C@@H](CO)CC2CCCC2)=N/C1=C\c1ccc2ncsc2c1
0.612 | 0.146 | 194 |  | 169 |  |  | O=C1NC(NC23CC4CC(CC(F)(C4)C2)C3)=N/C1=C\c1ccc2ncsc2c1
> 10 | > 10 | 1210 | 127 | 4760 | 19 | 573 | O=C1NC(NC2C3CC4CC(C3)CC2C4)=N/C1=C\c1ccc2ncsc2c1 (stereo not drawn)
